The target in experiment [1] is T1, membrane fusion caused by SNARE (SNAP25, syntaxin 1A, VAMP2) (UniProt P60879+P63045+Q16623).
T1 construct: made in house; host or cells: E. coli (Codon (+) RIL, Novagen)
The experiment can be described thus: Membrane fusion assay with SNARE-reconstituted liposomes (fluorescence). Format: biochemical. To be noted: for remaining activity at 20 µM: read-out: Membrane fusion caused by SNARE (% of fusion without inhibitor); for Reduction of membrane fusion (in words): FIG. 3; for Ratio for inhibition by 50% (IR50), membrane fusion: molar concentration ratio phenolic compound:SNAP-25, average of at least three measurements. The procedure:
In order to produce SNARE proteins, SNARE proteins, such as SNAP25 (NM011428), syntaxin 1A (AF217197), and VAMP2 (NM012663), were purified in biologically transformed E. coli (Codon (+) RIL, Novagen).
In order to prepare liposome (fine membrane) marked with a fluorescent substance, POPC (62 mol %), DOPS (35 mol %), NBD-PS (1.5 mol %) and a fluorescent substance Rhodamin-PE (1.5 mol %) were mixed to obtain 10 mM of liposome (v-vesicle). Also, in order to prepare a liposome not marked with a fluorescent substance, DOPS and POPC were mixed in a molar concentration ratio of 35:65 to obtain 50 mM of liposome (t-vesicle). In order to prepare a complex of the purified SNAP25 and syntaxin 1a, the SNAP25 and the syntaxin 1a were mixed in a molar concentration ratio of 1:1, and then were reacted at room temperature for 1 hour. Then, the resultant mixture and the liposome not marked with a fluorescent substance were mixed in a molar ratio of 100:1. The VAMP2 and the liposome marked with a fluorescent substance were mixed in a molar ratio of 50:1. Then, each of the two kinds of liposomes was dialyzed by using 10 kDa dialyzing membrane through agitation at 4° C. for 24 hours, and the liposomes were mixed in a ratio of 3:7 (v-vesicle t-visicle). Next, fluorescence was measured by using a fluorometer (SpectraMax M2 manufactured by Molecular Device).
Herein, 100% indicates the degree of membrane fusion in the state where no inhibitor was added. As the value is smaller, the inhibiting degree is higher.

Experiment [2] deals with T2, SNARE complex (SNAP25, SynH3, Vps) (UniProt P60879+P63045+Q16623).
T2 construct: SynH3 (AF217197); Vps (NM012663); made in house; host or cells: E. coli (Codon (+) RIL, Novagen)
T2 sequence (P60879 whole entry): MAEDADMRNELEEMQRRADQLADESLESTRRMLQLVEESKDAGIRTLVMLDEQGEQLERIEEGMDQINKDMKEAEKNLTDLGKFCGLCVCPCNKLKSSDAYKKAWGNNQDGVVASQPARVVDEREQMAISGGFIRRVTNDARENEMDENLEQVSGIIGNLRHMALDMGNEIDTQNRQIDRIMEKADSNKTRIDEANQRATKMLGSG
T2 sequence (Q16623 192-254 limits assumed): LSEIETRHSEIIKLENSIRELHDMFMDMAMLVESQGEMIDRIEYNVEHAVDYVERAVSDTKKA
T2 sequence (P63045 2-94 limits assumed): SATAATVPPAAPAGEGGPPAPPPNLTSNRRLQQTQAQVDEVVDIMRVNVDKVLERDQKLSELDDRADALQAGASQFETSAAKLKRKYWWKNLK
The experiment can be described thus: SDS-PAGE analysis of SNARE complex formation. As to conditions: for SNARE complex formation (%): control = 100, footnote: [phenolic compound]:SNAP-25 = 1:1, SNARE proteins 10 μM each, polyphenol 100 μM, room temperature 30 min; for Inhibition of SNARE complex formation (in words): FIG. 2, concentration series; for Ratio for inhibition by 50% (IR50), SNARE complex formation: molar concentration ratio phenolic compound:SNAP-25, average of at least three measurements. Format: biochemical. The protocol:
A SNARE complex is strong enough so as not to be untwisted by SDS. On the basis of such a property, a SDS-PAGE analysis was performed in order to determine the formation of a SNARE complex. Polyphenol compounds used in the present Example were purchased from Sigma-Aldrich, Wako Chemical, and Extrasynthese.
In order to produce SNARE proteins, SNARE proteins, such as, SNAP25 (NM011428), syntaxin 1A (AF217197), VAMP2 (NM012663), SynH3 (AF217197), and Vps (NM012663), were purified in biologically transformed E. coli (Codon (+) RIL, Novagen).
Then, the materials were quickly mixed by a vortex, and were reacted at room temperature for 30 minutes. […]

The mark [3] stands for this setting: 20 μM phenolic compound, 100% = no inhibitor added.

Like-named read-outs stand apart in the source and are kept apart here. Marks after values point to notes of the source that are not given here.

T1 sequence (P60879 whole entry, the tested form may be a part): as the sequence (P60879 whole entry) above
T1 sequence (Q16623 whole entry, the tested form may be a part): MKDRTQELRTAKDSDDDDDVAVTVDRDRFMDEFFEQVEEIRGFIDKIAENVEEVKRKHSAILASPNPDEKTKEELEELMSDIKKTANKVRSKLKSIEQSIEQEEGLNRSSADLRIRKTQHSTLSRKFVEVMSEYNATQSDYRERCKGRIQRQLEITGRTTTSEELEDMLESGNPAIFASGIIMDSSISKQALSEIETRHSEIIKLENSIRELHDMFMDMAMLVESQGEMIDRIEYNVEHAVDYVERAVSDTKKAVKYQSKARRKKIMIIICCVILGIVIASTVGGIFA
T1 sequence (P63045 whole entry, the tested form may be a part): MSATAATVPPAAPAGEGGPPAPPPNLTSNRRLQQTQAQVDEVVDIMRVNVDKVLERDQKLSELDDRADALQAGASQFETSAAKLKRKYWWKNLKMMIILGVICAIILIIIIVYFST

`O=C(O)/C=C/c1ccc(O)cc1` [p-Coumaric acid]: in experiment [1] (setting [3]), the remaining activity at 20 µM is 123 ± 14.3%. The “SNARE complex formation (%)” value in experiment [2] was determined as 91.21 ± 11.99%.
Turning to `Oc1cc(O)c2c(c1)O[C@H](c1ccc(O)c(O)c1)[C@@H](O)C2` [(+)-Catechin], in experiment [1] (setting [3]), the “Membrane fusion caused by SNARE (% of fusion without inhibitor)” value is 89.15 ± 1.19%. The “SNARE complex formation (%)” value in experiment [2] was found to be 105.02 ± 11.37%.
Take `O=C1c2c(O)cc(O)cc2O[C@H](c2ccc(O)c(O)c2)[C@H]1O` [Taxifolin]: the remaining activity at 20 µM in experiment [1] (setting [3]) amounted to 109 ± 3.92%.
For `Oc1cc(O)c2cc(O)c(-c3cc(O)c(O)c(O)c3)[o+]c2c1` [Delphinidin], the remaining activity at 20 µM in experiment [1] (setting [3]) amounted to 37.5 ± 3.45%. Also, the “SNARE complex formation (%)” value in experiment [2] is recorded as 60.53 ± 18.88 %.
Take `Oc1ccc(-c2[o+]c3cc(O)cc(O)c3cc2O)cc1` [Pelargonidin]: the remaining activity at 20 µM in experiment [1] (setting [3]) was 92.4 ± 3.38%. In addition, the “SNARE complex formation (%)” value in experiment [2] was found to be 95.61 ± 3.10%.
In the case of `O=c1c(O)c(-c2ccc(O[C@@H]3O[C@H](CO)[C@@H](O)[C@H](O)[C@H]3O)c(O)c2)oc2cc(O)cc(O)c12` [Spiraeoside], the remaining activity at 20 µM in experiment [1] (setting [3]) turned out to be 107 ± 6.72%.
For the molecule `COc1cc(/C=C/C(=O)O)ccc1O` [Ferulic acid], in experiment [1] (setting [3]), the remaining activity at 20 µM came out at 118 ± 2.79%. Besides, in experiment [2], the “SNARE complex formation (%)” value is 93.38 ± 14.39%.
As for `O=c1c(O)c(-c2ccc(O)c(O)c2)oc2c(O[C@@H]3O[C@H](CO)[C@@H](O)[C@H](O)[C@H]3O)c(O)cc(O)c12` [Gossypin], in experiment [1] (setting [3]), the “Membrane fusion caused by SNARE (% of fusion without inhibitor)” value was 103.19 ± 9.01%.
With `C[C@@H]1O[C@@H](OC[C@H]2O[C@@H](Oc3c(-c4ccc(O)c(O)c4)oc4cc(O)cc(O)c4c3=O)[C@H](O)[C@@H](O)[C@@H]2O)[C@H](O)[C@H](O)[C@H]1O` [Rutin], in experiment [1] (setting [3]), the remaining activity at 20 µM came to 96.7 ± 10.6%. In experiment [2], the “SNARE complex formation (%)” value is 92.86 ± 9.53%.
On to `COc1ccc([C@@H]2CC(=O)c3c(O)cc(O)cc3O2)cc1O` [Hesperetin], for which the remaining activity at 20 µM in experiment [1] (setting [3]) was 107 ± 2.29%. In experiment [2], the “SNARE complex formation (%)” value worked out at 114.55 ± 5.00%.
On the same counts, the results for `O=C(CCc1ccc(O)cc1)c1c(O)cc(O)cc1O[C@@H]1O[C@H](CO)[C@@H](O)[C@H](O)[C@H]1O` [Phloridzin] are 86.3 ± 3.87% and 115.19 ± 23.74%.
`Oc1cc(O)c2c(c1)O[C@H](c1ccc(O)c(O)c1)[C@H](O)C2` [(−)-Epicatechin]: the “Membrane fusion caused by SNARE (% of fusion without inhibitor)” value in experiment [1] (setting [3]) came out at 97.98 ± 1.50%. Moreover, the “SNARE complex formation (%)” value in experiment [2] was 114.55 ± 5.00%.
As for `C[C@@H]1O[C@@H](Oc2c(-c3ccc(O)c(O)c3)oc3cc(O)cc(O)c3c2=O)[C@H](O)[C@H](O)[C@H]1O` [Quercitrin], the remaining activity at 20 µM in experiment [1] (setting [3]) stood at 86 ± 26.1%. Also, the “SNARE complex formation (%)” value in experiment [2] is given as 92.18 ± 9.59%.
The like results for `COc1cc2c(c(OC)c1OC)-c1c(cc(OC)c(OC)c1OC)C[C@](C)(O)[C@@H](C)C2` [Schizandrin] were, in that order, 116 ± 5.52% and 107.60 ± 13.30%.
As to `O=c1c(O)c(-c2ccc(O)c(O)c2)oc2cc(O)cc(O)c12` [Quercetin], the remaining activity at 20 µM in experiment [1] (setting [3]) worked out at 33.4 ± 2.24%. Besides, in experiment [1], the “Reduction of membrane fusion (in words)” value is “can reduce membrane fusion” and the “Ratio for inhibition by 50% (IR50), membrane fusion” value stood at 2.87. Also, in experiment [2], the “Inhibition of SNARE complex formation (in words)” value was “inhibit the formation of a SNARE complex by 50% at a low concentration”; the “SNARE complex formation (%)” value is recorded as 79.80 ± 10.77 %; the “Ratio for inhibition by 50% (IR50), SNARE complex formation” value was 24.9.
`COc1cc(C(=O)O)cc(OC)c1O` [Syringic acid]: in experiment [1] (setting [3]), the remaining activity at 20 µM came to 78.2 ± 2.47%. The “SNARE complex formation (%)” value in experiment [2] is 92.25 ± 5.92%.
As to `O=c1cc(-c2ccc(O)cc2)oc2cc(O)cc(O)c12` [Apigenin], the remaining activity at 20 µM in experiment [1] (setting [3]) turned out to be 96.9 ± 7.99%. Moreover, in experiment [2], the “SNARE complex formation (%)” value is given as 96.94 ± 7.99%.
The like results for `COc1cc(C(=O)O)ccc1O` [Vanillic acid] were, in that order, 99.6 ± 7.63% and 97.23 ± 5.70%.
Consider `COc1ccc([C@@H]2CC(=O)c3c(O)cc(O[C@@H]4O[C@H](CO[C@@H]5O[C@@H](C)[C@H](O)[C@@H](O)[C@H]5O)[C@@H](O)[C@H](O)[C@H]4O)cc3O2)cc1O` [Hesperidin], for which the “Membrane fusion caused by SNARE (% of fusion without inhibitor)” value in experiment [1] (setting [3]) came out at 124.11 ± 15.01%. Further, the “SNARE complex formation (%)” value in experiment [2] stood at 112.38 ± 10.43%.
Consider `O=c1cc(-c2ccc(O)c(O)c2)oc2cc(O)cc(O)c12` [Luteolin], for which, in experiment [1] (setting [3]), the remaining activity at 20 µM is 65.5 ± 2.09%. In experiment [1], the “Reduction of membrane fusion (in words)” value is on record as “can reduce membrane fusion” and the “Ratio for inhibition by 50% (IR50), membrane fusion” value was 4.02. For the same molecule, in experiment [2], the “SNARE complex formation (%)” value came out at 86.23 ± 8.14 % and the “Ratio for inhibition by 50% (IR50), SNARE complex formation” value was 38.2.
For the molecule `COc1cc2c(c(OC)c1OC)-c1c(cc3c(c1OC)OCO3)C[C@H](C)[C@H](C)C2` [Gomisiin N], the “Membrane fusion caused by SNARE (% of fusion without inhibitor)” value in experiment [1] (setting [3]) was 92.31 ± 2.37%. The “SNARE complex formation (%)” value in experiment [2] worked out at 99.04 ± 5.17%.
For the molecule `O=c1c(-c2ccc(O)cc2)coc2cc(O)cc(O)c12` [Genistein], the remaining activity at 20 µM in experiment [1] (setting [3]) was 119 ± 18.1%. For the same molecule, in experiment [2], the “SNARE complex formation (%)” value came out at 96.76 ± 8.91%.
On the same counts, the results for `O=C(O)c1cc(O)ccc1O` [Gentisic acid] are 96.7 ± 2.38% and 100.16 ± 2.19%.
With `COc1cc2c(c(OC)c1OC)-c1c(cc3c(c1OC)OCO3)C[C@H](C)[C@](C)(O)C2` [Gomisin A], in experiment [1] (setting [3]), the “Membrane fusion caused by SNARE (% of fusion without inhibitor)” value is given as 79.63 ± 7.58%. Besides, the “SNARE complex formation (%)” value in experiment [2] turned out to be 97.99 ± 0.87%.
In the case of `O=C(O)/C=C/c1ccc(O)c(O)c1` [Caffeic acid], the remaining activity at 20 µM in experiment [1] (setting [3]) came to 125 ± 7.45%. The “SNARE complex formation (%)” value in experiment [2] was determined as 93.33 ± 12.20%.
As for `O=c1c(O)c(-c2ccc(O)cc2)oc2cc(O)cc(O)c12` [Kaempferol], in experiment [1] (setting [3]), the remaining activity at 20 µM worked out at 108 ± 5%. Besides, in experiment [1], the “Reduction of membrane fusion (in words)” value is reported as “can reduce membrane fusion” and the “Ratio for inhibition by 50% (IR50), membrane fusion” value is >20^b. In addition, in experiment [2], the “Inhibition of SNARE complex formation (in words)” value is recorded as “inhibit the formation of a SNARE complex by 50% at a low concentration”; the “SNARE complex formation (%)” value is on record as 100.13 ± 7.16%; the “Ratio for inhibition by 50% (IR50), SNARE complex formation” value is recorded as >60^b.
For the molecule `O=C(O)/C=C/c1ccccc1` [Trans-cinnamic acid], the remaining activity at 20 µM in experiment [1] (setting [3]) stood at 108 ± 10.6%. Besides, the “SNARE complex formation (%)” value in experiment [2] came to 106.78 ± 30.15%.
As for `O=C(O)c1ccc(O)c(O)c1` [Protocatechuic acid], in experiment [1] (setting [3]), the remaining activity at 20 µM was found to be 104 ± 8.19%. For the same molecule, the “SNARE complex formation (%)” value in experiment [2] was determined as 98.38 ± 4.56%.
Consider `Oc1cc(O)c2cc(O)c(-c3ccc(O)c(O)c3)[o+]c2c1` [Cyanidin], for which the remaining activity at 20 µM in experiment [1] (setting [3]) came to 7.23 ± 1.08%. The “SNARE complex formation (%)” value in experiment [2] worked out at 67.12 ± 20.31 %.
On to `COc1cc(-c2[o+]c3cc(O)cc(O)c3cc2O)cc(OC)c1O` [Malvidin], for which the remaining activity at 20 µM in experiment [1] stood at 116 ± 5.97%. In addition, in experiment [2], the “SNARE complex formation (%)” value was 97.42 ± 6.31%.
Turning to `C[C@@H]1O[C@@H](O[C@H]2[C@H](Oc3cc(O)c4c(c3)O[C@H](c3ccc(O)cc3)CC4=O)O[C@H](CO)[C@@H](O)[C@@H]2O)[C@H](O)[C@H](O)[C@H]1O` [Naringin], the remaining activity at 20 µM in experiment [1] (setting [3]) was found to be 107 ± 2.89%. For the same molecule, the “SNARE complex formation (%)” value in experiment [2] is reported as 105.02 ± 11.37%.
On the same counts, the results for `O=c1c(O)c(-c2ccc(O)c(O)c2)oc2cc(O)ccc12` [Fisetin] are 32.1 ± 4.14% and 90.14 ± 10.42%.
